Series [1] deals with microfilaricidal activity. The note with it: cited from earlier work.
The test system of series [2] is LPS-induced pulmonary neutrophilia and emesis in the conscious ferret. The series can be described thus: In vivo Assay 4: therapeutic index of orally-administered PDE4 inhibitors in the conscious ferret. As for the experimental part: In vivo Assay 4. Evaluation of Therapeutic Index of Orally-administered PDE 4 Inhibitors in the Conscious Ferret
PDE4 inhibitors are prepared for oral p.o.) administration by dissolving in a fixed volume (1 ml) of acetone and then adding cremophor to 20% of the final volume. Acetone is evaporated by directing a flow of nitrogen gas onto the solution. Once the acetone is removed, the solution is made up to final volume with distilled water. LPS is dissolved in phosphate buffered saline.
Male ferrets (Mustela Pulorius Furo, weighing 1-2 kg) are transported and allowed to acclimatise for not less than 7 days. The diet comprises SDS diet C pelleted food given ad lib with Whiskers™ cat food given 3 times per week. The animals are supplied with pasteurised animal grade drinking water changed daily.
PDE4 inhibitors are administered orally (p.o.), using a dose volume of 1 ml/kg.
Ferrets are fasted overnight but allowed free access to water. The animals are orally dosed with vehicle or PDE 4 inhibitor using a 15 cm dosing needle that is passed down the back of the throat into the oesophagus. After dosing, the animals are returned to holding cages fitted with perspex doors to allow observation, and given free access to water. The animals are constantly observed and any emetic episodes (retching and vomiting) or behavioural changes are recorded. […]
Thirty minutes after oral dosing with compound or vehicle control, the ferrets are placed into sealed perspex containers and exposed to an aerosol of LPS (30 μg/ml) for 10 minutes. […] All emetic episodes and behavioural changes are recorded.
Six hours after LPS exposure the animals are killed by overdose of sodium pentobarbitone administered intraperitoneally. […] From this, the total number of neutrophils in the BAL sample is determined. […]
b) Emetic episodes—the number of vomits and retches are counted to determine the dose of PDE4 inhibitor that gives a 20% incidence of emesis (D20).
c) A therapeutic index (TI), using this assay, is then calculated for each PDE4 inhibitor using the following equation: […]

The source of these data is patent US7528148B2, “Pyrazolo[3,4-B]pyridine compounds, and their use as phosphodiesterase inhibitors” (Glaxo Group Limited, priority 2002, dated 2009).

Turning to `CC1Cc2ccccc2C(c2cnc3c(c(-c4ccccc4)nn3-c3ccccc3)c2O)=N1` (centres unmarked), the microfilaricidal activity entry in series [1] is “no significant microfilaricidal activity”.
As for `Oc1c(C2=NCCc3ccccc32)cnc2c1c(-c1ccccc1)nn2-c1ccccc1` [4-hydroxy-1,3-diphenyl-5-(3′,4′-dihydroisoquinol-1′-yl)-pyrazolo[3,4-b]pyridine, reference compound], the microfilaricidal activity result in series [1] is listed as “no significant microfilaricidal activity”.
Consider `O=C(Nc1c(Cl)cncc1Cl)c1ccc(OC(F)F)c(OCC2CC2)c1` [roflumilast], for which the “Ferret TI” value in series [2] (D20/D50, p.o.) was 1.1. This compound also returned a D20 for emesis in series [2] (ferret, p.o., dose giving 20% incidence of emesis) of 0.46 mg/kg. Further, the “D50 for ferret neutrophilia” value in series [2] (ferret, p.o., dose giving 50% inhibition of LPS-induced pulmonary neutrophilia) came to 0.42 mg/kg.
